From patent publication US7731985B2, “4-aminopyrimidines and their use for the antimicrobial treatment of surfaces” (Ciba Specialty Chemicals Corporation, priority 2002, dated 2010)

Experiments:
Test in all cases: MIC in microtitre plates (Example 10)
Assay type in all cases: cell-based
Design in all cases: unit not given here
Details in all cases: microtitre plate, 48 hours at 37° C., ≦20% growth
[1] = system: Candida albicans ATCC 10231 (=CA)
Summary of the method: (§1)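 DMSO-dissolved compounds tested in 1:2 serial dilution against overnight CASO broth cultures, inoculum adjusted to 1-5×10^6 CFU/ml then diluted 1:100 in CASO. Incubated 48 hours at 37° C; turbidity read at 620 nm. MIC = lowest concentration giving ≦20% growth versus control; duplicates.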

[2] = system: Escherichia coli NCTC 8196 (=EC)
Summary of the method: as §1

[3] = system: Pseudomonas aeruginosa CIP A-22 (=PA)
Summary of the method: as §1

[4] = system: Staphylococcus aureus ATCC 9144 (=SA)
Summary of the method: as §1

MIC CA [1]	MIC EC [2]	MIC PA [3]	MIC SA [4]	Compound
>120	>120	>120	30	CCCCCCNc1cc(C)nc(-c2ccc(-c3ccccc3)cc2)n1 [compound 108]
30	60	>120	15	CCCCCCNc1cc(C)nc(-c2ccc(C(C)(C)C)cc2)n1 [compound 109]
120	>120	>120	60	CCCCCCNc1cc(C)nc(-c2cccs2)n1 [compound 110]
60	120	>120	7.5	CCCCCCNc1cc(C)nc(-c2ccccc2)n1 [compound 111]
30	120	>120	15	CCCCCCNc1cc(C)nc(-c2ccncc2)n1 [compound 112]
30	120	>120	7.5	CCCCCCNc1cc(C)nc(C)n1 [compound 113]
30	>120	>120	15	CCCCCCNc1cc(C)nc(-c2cccc(N)c2)n1 [compound 114]
120	>120	>120	7.5	CCCCCCNc1cc(C)nc(-c2ccc(C)cc2)n1 [compound 115]
15	60	>120	7.5	CCCCCCNc1cc(C)nc(C2CC2)n1 [compound 116]
30	120	>120	15	CCCCCCNc1cc(C)nc(C(C)C)n1 [compound 117]
15	60	>120	7.5	CCCCCCNc1cc(C)nc(-c2csc(C)n2)n1 [compound 118]
120	>120	>120	7.5	CCCCCCNc1cc(C)nc(-c2ccc(C)c(F)c2)n1 [compound 119]
30	120	>120	30	CCCCCCNc1cc(C)nc(-c2ccc(N)cc2)n1 [compound 120]
>120	>120	>120	30	CCCCN(CCCC)c1cc(C)nc(-c2ccncc2)n1 [compound 121]
120	>120	>120	30	CCCCN(CCCC)c1cc(C)nc(-c2csc(C)n2)n1 [compound 122]
>120	>120	>120	120	CCCCN(C)c1cc(C)nc(-c2ccc(C(C)(C)C)cc2)n1 [compound 123]
60	120	>120	60	CCCCN(C)c1cc(C)nc(-c2cccs2)n1 [compound 124]
120	>120	>120	120	CCCCN(C)c1cc(C)nc(-c2ccncc2)n1 [compound 125]
120	>120	>120	120	CCCCN(C)c1cc(C)nc(C)n1 [compound 126]
60	>120	>120	60	CCCCN(C)c1cc(C)nc(C2CC2)n1 [compound 127]
120	>120	>120	120	CCCCN(C)c1cc(C)nc(C(C)C)n1 [compound 128]
120	>120	>120	120	CCCCN(C)c1cc(C)nc(-c2csc(C)n2)n1 [compound 129]
